Patent publication US12281149B2, “Modulators of G-protein coupled receptors” (priority 2021, dated 2025)
*1 amine or outer side, *2 acyl side, *3 side chain or, on linkers, in order; H or OH if unused. Where a SMILES comes first, the peptide text is derived from it. Side-chain parts run from the residue outwards. [ ]: non-standard residue; d: D form. The star is where a group is joined. Cyclopropanecarbonyl(1-Ph) = O=C(C1(c2ccccc2)CC1)*; C20 diacid = O=C(O)CCCCCCCCCCCCCCCCCCC(=O)*; γGlu = O=C(O)[C@H](CCC(=O)[*:2])N[*:1]; X38 = CC(C)(C(=O)*)c1cc(O)cc(F)c1; X77 = CC(C(=O)*)c1cc(F)cc(F)c1; X50 = CC(C)(N*)c1ccc(F)c(F)c1; Suc = O=C(CCC(=O)[*:2])[*:1]; AEEA = NCCOCCOCC(=O)O; Aib = CC(C)(N)C(=O)O; βAla = NCCC(=O)O

Experiments:
Assay type in all cases: cell-based
[1] = target: T1, GLP-1 receptor (Homo sapiens, UniProt P43220); test: PathHunter β-arrestin assay, GLP-1 receptor; parameters: host or cells: PathHunter CHO-K1 GLP1R β-Arrestin Cell Line; details: β-arrestin-2 recruitment, PathHunter CHO-K1 GLP1R β-Arrestin Cell Line, 90 min at 37° C.; normalized to GLP-1; read-out: GLP-1R β Arrestin EC50
T1 sequence (P43220 24-463): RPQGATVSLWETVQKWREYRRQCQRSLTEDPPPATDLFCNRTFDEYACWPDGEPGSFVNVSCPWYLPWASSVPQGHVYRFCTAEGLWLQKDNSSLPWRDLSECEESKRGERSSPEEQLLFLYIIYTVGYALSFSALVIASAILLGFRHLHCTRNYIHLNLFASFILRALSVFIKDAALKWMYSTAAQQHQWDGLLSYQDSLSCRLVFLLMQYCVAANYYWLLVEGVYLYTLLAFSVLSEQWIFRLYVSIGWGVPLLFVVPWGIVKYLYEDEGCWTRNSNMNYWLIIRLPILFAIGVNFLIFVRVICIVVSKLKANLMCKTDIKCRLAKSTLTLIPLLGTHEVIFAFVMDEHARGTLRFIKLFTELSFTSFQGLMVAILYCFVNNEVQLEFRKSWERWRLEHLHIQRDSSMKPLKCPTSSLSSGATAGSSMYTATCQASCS
Procedure: (§1) β-arrestin-2 recruitment for GLP-1 receptor or GIP receptor was measured using the DiscoverX PathHunter Detection Kit and PathHunter® CHO-K1 GLPIR β-Arrestin Cell Line or PathHunter® CHO-K1 GIPR β-Arrestin Cell Line, respectively). Briefly, cells were grown in Ham's F12 Nutrient Mix with 10% FBS and lifted with Cell dissociation buffer, Enzyme free, PBS based (ThermoFisher). Harvested cells were pelleted and resuspended in Assay Complete Cell Plating Reagent 2 and 5000 cells per well were plated in tissue culture treated 384-well small volume white assay plates. Plates were then incubated at 37° C. and 5% CO2 overnight. The media was then replaced with fresh Assay Complete Cell Plating Reagent 2. Cells were then treated with 10 nl compound in DMSO using an ECHO 550 acoustic dispenser (Labcyte) in a 20-point dose response format in duplicate for 90 min at 37° C. The assay was then completed according to the manufacturer's instructions. Luminescence was measured using a Perkin Elmer Envision plate reader. Raw data was normalized to the maximum signal from GLP-1 or GIP (high) and DMSO (low). Dose response curves were analyzed using GraphPad Prism 9.0.

[2] = target: T2, GIP receptor (Homo sapiens, UniProt P48546); test: HitHunter cAMP assay, GIP receptor; details: for EC50: CHO cells stably expressing GIP receptor, cAMP accumulation, 30 min, read-out: EC50 GIP-1R; for Emax: CHO cells, cAMP, normalized to maximum signal from GIP (high) and DMSO (low), read-out: Emax GIP-1R
T2 sequence (P48546 22-466): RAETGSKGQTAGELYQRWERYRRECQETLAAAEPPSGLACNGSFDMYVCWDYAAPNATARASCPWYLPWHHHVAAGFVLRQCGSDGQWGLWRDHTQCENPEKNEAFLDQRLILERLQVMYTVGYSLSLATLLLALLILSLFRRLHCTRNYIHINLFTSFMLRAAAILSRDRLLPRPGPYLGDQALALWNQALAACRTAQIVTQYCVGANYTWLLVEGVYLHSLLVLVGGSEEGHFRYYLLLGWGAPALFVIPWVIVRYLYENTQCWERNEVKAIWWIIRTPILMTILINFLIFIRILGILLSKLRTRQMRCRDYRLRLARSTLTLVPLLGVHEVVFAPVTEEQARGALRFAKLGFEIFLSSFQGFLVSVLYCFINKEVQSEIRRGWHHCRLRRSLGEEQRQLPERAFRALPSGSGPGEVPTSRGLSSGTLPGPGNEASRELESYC

[3] = target: T1, GLP-1 receptor; test: HitHunter cAMP assay, GLP-1 receptor; details: for EC50: CHO cells stably expressing human GLP-1 receptor, cAMP accumulation, 30 min, read-out: EC50 GLP-1R; for Emax: CHO cells, cAMP, normalized to maximum signal from GLP-1 (high) and DMSO (low), read-out: Emax GLP-1R
[4] = target: T2, GIP receptor; test: PathHunter β-arrestin assay, GIP receptor; parameters: host or cells: PathHunter CHO-K1 GIPR β-Arrestin Cell Line; details: β-arrestin-2 recruitment, PathHunter CHO-K1 GIPR β-Arrestin Cell Line, 90 min at 37° C.; normalized to GIP; read-out: GIPR β Arrestin EC50
Procedure: as §1

SMILES | EC50 [1] [nM] | EC50 [2] [nM] | Emax [2] [%] | EC50 [3] [nM] | Emax [3] [%] | EC50 [4] [nM]
CC[C@H](C)[C@H](NC(=O)[C@H](CC(C)C)NC(=O)[C@H](Cc1c[nH]c2ccccc12)NC(=O)[C@H](CCC(N)=O)NC(=O)[C@@H](NC(=O)[C@H](Cc1ccccc1)NC(=O)[C@H](C)NC(=O)[C@H](CCCCNC(=O)COCCOCCNC(=O)COCCOCCNC(=O)CC[C@H](NC(=O)CCCCCCCCCCCCCCCCCCC(=O)O)C(=O)O)NC(=O)[C@H](CCC(N)=O)NC(=O)[C@H](C)NC(=O)[C@@H](NC(=O)[C@H](CCCCN)NC(=O)[C@H](CC(=O)O)NC(=O)[C@H](CC(C)C)NC(=O)C(C)(C)NC(=O)[C@@H](NC(=O)[C@H](CO)NC(=O)[C@H](Cc1ccc(O)cc1)NC(=O)[C@H](CC(=O)O)NC(=O)[C@H](CO)NC(=O)[C@@H](NC(=O)[C@H](Cc1ccccc1)NC(=O)[C@@H](NC(=O)CNC(=O)[C@H](CCC(=O)O)NC(=O)CCNC(=O)C(C)(C)c1cc(O)cc(F)c1)[C@@H](C)O)[C@@H](C)O)[C@@H](C)CC)[C@@H](C)CC)C(C)C)C(=O)N[C@@H](C)C(=O)NCC(=O)NCC(=O)N1CCC[C@H]1C(=O)N[C@@H](CO)C(=O)N[C@@H](CO)C(=O)NCC(=O)N[C@@H](C)C(=O)N1CCC[C@H]1C(=O)N1CCC[C@H]1C(=O)N1CCC[C@H]1C(=O)N[C@@H](CO)C(N)=O [Compound 117] ({X38-βAla}-EGTFTSDYSI[Aib]LDKIAQK([AEEA-AEEA-γGlu-C20 diacid])AFVQWLIAGGPSSGAPPPS-NH2) | > 1000 | 1 to 10 | 100 | 0.1 to 1 | 96 | > 1000
CC[C@H](C)[C@H](NC(=O)[C@H](CC(C)C)NC(=O)[C@H](Cc1c[nH]c2ccccc12)NC(=O)[C@H](CCC(N)=O)NC(=O)[C@@H](NC(=O)[C@H](Cc1ccccc1)NC(=O)[C@H](C)NC(=O)[C@H](CCCCNC(=O)COCCOCCNC(=O)COCCOCCNC(=O)CC[C@H](NC(=O)CCCCCCCCCCCCCCCCCCC(=O)O)C(=O)O)NC(=O)[C@H](CCC(N)=O)NC(=O)[C@H](C)NC(=O)[C@@H](NC(=O)[C@H](CCCCN)NC(=O)[C@H](CC(=O)O)NC(=O)[C@H](CC(C)C)NC(=O)C(C)(C)NC(=O)[C@@H](NC(=O)[C@H](CO)NC(=O)[C@H](Cc1ccc(O)cc1)NC(=O)[C@H](CC(=O)O)NC(=O)[C@H](CO)NC(=O)[C@@H](NC(=O)[C@H](Cc1ccccc1)NC(=O)[C@@H](NC(=O)CNC(=O)[C@H](CCC(=O)O)NC(=O)CCNC(=O)C(C)c1cc(F)cc(F)c1)[C@@H](C)O)[C@@H](C)O)[C@@H](C)CC)[C@@H](C)CC)C(C)C)C(=O)N[C@@H](C)C(=O)NCC(=O)NCC(=O)N1CCC[C@H]1C(=O)N[C@@H](CO)C(=O)N[C@@H](CO)C(=O)NCC(=O)N[C@@H](C)C(=O)N1CCC[C@H]1C(=O)N1CCC[C@H]1C(=O)N1CCC[C@H]1C(=O)N[C@@H](CO)C(N)=O (stereo partly drawn) [Compound 216] ({X77-βAla}-EGTFTSDYSI[Aib]LDKIAQK([AEEA-AEEA-γGlu-C20 diacid])AFVQWLIAGGPSSGAPPPS-NH2) | > 1000 | 10 to 100 | 93 | 0.1 to 1 | 102 | > 1000
CC[C@H](C)[C@H](NC(=O)[C@H](CC(C)C)NC(=O)[C@H](Cc1c[nH]c2ccccc12)NC(=O)[C@H](CCC(N)=O)NC(=O)[C@@H](NC(=O)[C@H](Cc1ccccc1)NC(=O)[C@H](C)NC(=O)[C@H](CCCCNC(=O)COCCOCCNC(=O)COCCOCCNC(=O)CC[C@H](NC(=O)CCCCCCCCCCCCCCCCCCC(=O)O)C(=O)O)NC(=O)[C@H](CCC(N)=O)NC(=O)[C@H](C)NC(=O)[C@@H](NC(=O)[C@H](CCCCN)NC(=O)[C@H](CC(=O)O)NC(=O)[C@H](CC(C)C)NC(=O)C(C)(C)NC(=O)[C@@H](NC(=O)[C@H](CO)NC(=O)[C@H](Cc1ccc(O)cc1)NC(=O)[C@H](CC(=O)O)NC(=O)[C@H](CO)NC(=O)[C@@H](NC(=O)[C@H](Cc1ccccc1)NC(=O)[C@@H](NC(=O)CNC(=O)[C@H](CCC(=O)O)NC(=O)CCC(=O)NC(C)(C)c1ccc(F)c(F)c1)[C@@H](C)O)[C@@H](C)O)[C@@H](C)CC)[C@@H](C)CC)C(C)C)C(=O)N[C@@H](C)C(=O)NCC(=O)NCC(=O)N1CCC[C@H]1C(=O)N[C@@H](CO)C(=O)N[C@@H](CO)C(=O)NCC(=O)N[C@@H](C)C(=O)N1CCC[C@H]1C(=O)N1CCC[C@H]1C(=O)N1CCC[C@H]1C(=O)N[C@@H](CO)C(N)=O [Compound 280] ({X50-Suc}-EGTFTSDYSI[Aib]LDKIAQK([AEEA-AEEA-γGlu-C20 diacid])AFVQWLIAGGPSSGAPPPS-NH2) | > 1000 | 1 to 10 | 114 | 1 to 10 | 90 | > 1000
CC[C@H](C)[C@H](NC(=O)[C@H](CO)NC(=O)[C@H](Cc1ccc(O)cc1)NC(=O)[C@H](CC(=O)O)NC(=O)[C@H](CO)NC(=O)[C@@H](NC(=O)[C@H](Cc1ccccc1)NC(=O)[C@@H](NC(=O)CNC(=O)[C@H](CCC(=O)O)NC(=O)CCNC(=O)C1(c2ccccc2)CCC(=O)NC1)[C@@H](C)O)[C@@H](C)O)C(=O)N[C@@H](Cc1ccc(O)cc1)C(=O)N[C@@H](CC(C)C)C(=O)N[C@@H](CC(=O)O)C(=O)N[C@@H](CCCCN)C(=O)N[C@@H](CCC(N)=O)C(=O)N[C@@H](C)C(=O)N[C@@H](C)C(=O)NC(C)(C)C(=O)N[C@@H](CCC(=O)O)C(=O)N[C@@H](Cc1ccccc1)C(=O)N[C@H](C(=O)N[C@@H](CC(N)=O)C(=O)N[C@@H](Cc1c[nH]c2ccccc12)C(=O)N[C@@H](CC(C)C)C(=O)N[C@@H](CC(C)C)C(=O)N[C@@H](C)C(=O)NCC(=O)NCC(=O)N1CCC[C@H]1C(=O)N[C@@H](CO)C(=O)N[C@@H](CO)C(=O)NCC(=O)N[C@@H](C)C(=O)N1CCC[C@H]1C(=O)N1CCC[C@H]1C(=O)N1CCC[C@H]1C(=O)N[C@@H](CO)C(=O)N[C@@H](CCCCNC(=O)COCCOCCNC(=O)COCCOCCNC(=O)CC[C@H](NC(=O)CCCCCCCCCCCCCCCCCCC(=O)O)C(=O)O)C(N)=O)C(C)C (stereo partly drawn) [Compound 156] | > 1000 | 1 to 10 | 95 | 1 to 10 | 95 | > 1000
CC[C@H](C)[C@H](NC(=O)[C@H](CC(C)C)NC(=O)[C@H](Cc1c[nH]c2ccccc12)NC(=O)[C@H](CCC(N)=O)NC(=O)[C@@H](NC(=O)[C@H](Cc1ccccc1)NC(=O)[C@H](C)NC(=O)[C@H](CCCCNC(=O)COCCOCCNC(=O)COCCOCCNC(=O)CC[C@H](NC(=O)CCCCCCCCCCCCCCCCCCC(=O)O)C(=O)O)NC(=O)[C@H](CCC(N)=O)NC(=O)[C@H](C)NC(=O)[C@@H](NC(=O)[C@H](CCCCN)NC(=O)[C@H](CC(=O)O)NC(=O)[C@H](CC(C)C)NC(=O)C(C)(C)NC(=O)[C@@H](NC(=O)[C@H](CO)NC(=O)[C@H](Cc1ccc(O)cc1)NC(=O)[C@H](CC(=O)O)NC(=O)[C@H](CO)NC(=O)[C@@H](NC(=O)[C@H](Cc1ccccc1)NC(=O)[C@@H](NC(=O)CNC(=O)[C@H](CCC(=O)O)NC(=O)CCNC(=O)C1(c2ccccc2)CC1)[C@@H](C)O)[C@@H](C)O)[C@@H](C)CC)[C@@H](C)CC)C(C)C)C(=O)N[C@@H](C)C(=O)NCC(=O)NCC(=O)N1CCC[C@H]1C(=O)N[C@@H](CO)C(=O)N[C@@H](CO)C(=O)NCC(=O)N[C@@H](C)C(=O)N1CCC[C@H]1C(=O)N1CCC[C@H]1C(=O)N1CCC[C@H]1C(=O)N[C@@H](CO)C(N)=O [Compound 199] ({Cyclopropanecarbonyl(1-Ph)-βAla}-EGTFTSDYSI[Aib]LDKIAQK([AEEA-AEEA-γGlu-C20 diacid])AFVQWLIAGGPSSGAPPPS-NH2) | > 1000 | 10 to 100 | 102 | 1 to 10 | 100 | > 1000
